In paper PMC10385824, “Antiproliferative and Tubulin-Destabilising Effects of 3-(Prop-1-en-2-yl)azetidin-2-Ones and Related Compounds in MCF-7 and MDA-MB-231 Breast Cancer Cells” (Pharmaceuticals, 2023):
Read-outs that look alike come from different tables or passages of the source.

Columns and labels:
MDA-MB-435 = assay: NCI-60 SRB screen, melanoma; format: cell-based, human; conditions: Homo sapiens; MDA-MB-435; five dose 0.01–100 µM, 48 h; read-out: GI50
HCT-2998 = assay: NCI-60 SRB screen, colon cancer; format: cell-based, human; conditions: Homo sapiens; HCT-2998; five dose 0.01–100 µM, 48 h; read-out: GI50
HCT-116 = assay: NCI-60 SRB screen, colon cancer; format: cell-based, human; conditions: Homo sapiens; HCT-116; five dose 0.01–100 µM, 48 h; read-out: GI50
HT29 = assay: NCI-60 SRB screen, colon cancer; format: cell-based, human; conditions: Homo sapiens, HT-29; for GI50: HT29, five dose 0.01–100 µM, 48 h, read-out: GI50
SK-MEL-28 = assay: NCI-60 SRB screen, melanoma; format: cell-based, human; conditions: Homo sapiens; SK-MEL-28; five dose 0.01–100 µM, 48 h; read-out: GI50
LOX IMVI = assay: NCI-60 SRB screen, melanoma; format: cell-based, human; conditions: Homo sapiens, five dose 0.01–100 µM, 48 h, read-out: GI50
U251 = assay: NCI-60 SRB screen, CNS cancer; format: cell-based, human; conditions: Homo sapiens, U-251; U251; five dose 0.01–100 µM, 48 h; read-out: GI50
IGROV1 = assay: NCI-60 SRB screen, ovarian cancer; format: cell-based, human; conditions: Homo sapiens, IGROV-1; IGROV1; five dose 0.01–100 µM, 48 h; read-out: GI50
[1] = tested on: NCI 60 human cancer cell line panel; assay: NCI 60 cell line screen (SRB), panel values; conditions: for CC50: read-out: Mean LC50; for IC (TGI (total growth inhibition)): read-out: Mean TGI
MCF-7 = assay: cells; conditions: Homo sapiens, MCF7, 48 h
UO-31 = assay: NCI-60 SRB screen, renal cancer; format: cell-based, human; conditions: Homo sapiens; UO-31; five dose 0.01–100 µM, 48 h; read-out: GI50
T-47D = assay: NCI-60 SRB screen, breast cancer; format: cell-based, human; conditions: Homo sapiens, T47D; T-47D; five dose 0.01–100 µM, 48 h; read-out: GI50
BT-549 = assay: NCI-60 SRB screen, breast cancer; format: cell-based, human; conditions: Homo sapiens; BT-549; five dose 0.01–100 µM, 48 h; read-out: GI50
SN12C = assay: NCI-60 SRB screen, renal cancer; format: cell-based, human; conditions: Homo sapiens, five dose 0.01–100 µM, 48 h, read-out: GI50
SW-620 = assay: NCI-60 SRB screen, colon cancer; format: cell-based, human; conditions: Homo sapiens; SW-620; five dose 0.01–100 µM, 48 h; read-out: GI50
OVCAR-3 = assay: NCI-60 SRB screen, ovarian cancer; format: cell-based, human; conditions: Homo sapiens; OVCAR-3; five dose 0.01–100 µM, 48 h; read-out: GI50
HCT-15 = assay: NCI-60 SRB screen, colon cancer; format: cell-based, human; conditions: Homo sapiens; HCT-15; five dose 0.01–100 µM, 48 h; read-out: GI50
OVCAR-4 = assay: NCI-60 SRB screen, ovarian cancer; format: cell-based, human; conditions: Homo sapiens; OVCAR-4; five dose 0.01–100 µM, 48 h; read-out: GI50
A498 = assay: NCI-60 SRB screen, renal cancer; format: cell-based, human; conditions: Homo sapiens; A498; five dose 0.01–100 µM, 48 h; read-out: GI50
NCI-H552 = assay: NCI-60 SRB screen, non-small cell lung cancer; format: cell-based, human; conditions: Homo sapiens; NCI-H552; five dose 0.01–100 µM, 48 h; read-out: GI50
SK-OV-3 = assay: NCI-60 SRB screen, ovarian cancer; format: cell-based, human; conditions: Homo sapiens; SK-OV-3; five dose 0.01–100 µM, 48 h; read-out: GI50
HS 578T = assay: NCI-60 SRB screen, breast cancer; format: cell-based; conditions: Homo sapiens; HS 578T; five dose 0.01–100 µM, 48 h; read-out: GI50
RXF 393 = assay: NCI-60 SRB screen, renal cancer; format: cell-based, human; conditions: Homo sapiens; RXF 393; five dose 0.01–100 µM, 48 h; read-out: GI50
786-0 = assay: NCI-60 SRB screen, renal cancer; format: cell-based, human; conditions: Homo sapiens; 786-0; five dose 0.01–100 µM, 48 h; read-out: GI50
A549/ATCC = assay: NCI-60 SRB screen, non-small cell lung cancer; format: cell-based, human; conditions: Homo sapiens; A549/ATCC; five dose 0.01–100 µM, 48 h; read-out: GI50
KM12 = assay: NCI-60 SRB screen, colon cancer; format: cell-based, human; conditions: Homo sapiens; KM12; five dose 0.01–100 µM, 48 h; read-out: GI50
COLO 205 = assay: NCI-60 SRB screen, colon cancer; format: cell-based, human; conditions: Homo sapiens; COLO 205; five dose 0.01–100 µM, 48 h; read-out: GI50
HOP-92 = assay: NCI-60 SRB screen, non-small cell lung cancer; format: cell-based, human; conditions: Homo sapiens; HOP-92; five dose 0.01–100 µM, 48 h; read-out: GI50
HOP-62 = assay: NCI-60 SRB screen, non-small cell lung cancer; format: cell-based, human; conditions: Homo sapiens; HOP-62; five dose 0.01–100 µM, 48 h; read-out: GI50
CCRF-CEM = assay: NCI-60 SRB screen, leukemia; format: cell-based; conditions: Homo sapiens, five dose 0.01–100 µM, 48 h, read-out: GI50
RPMI-8226 = assay: NCI-60 SRB screen, leukemia; format: cell-based, human; conditions: Homo sapiens; RPMI-8226; five dose 0.01–100 µM, 48 h; read-out: GI50
EKVX = assay: NCI-60 SRB screen, non-small cell lung cancer; format: cell-based, human; conditions: Homo sapiens, five dose 0.01–100 µM, 48 h, read-out: GI50
[2] = Homo sapiens, 60 cell, read-out: Mean GI50, mean over all NCI 60 cell lines
[3] = read-out: Mean GI50, mean over all NCI 60 cell lines

SMILES	GI50 (MDA-MB-435) [nM]	GI50 (HCT-2998) [nM]	GI50 (HCT-116) [nM]	GI50 (HT29) [nM]	GI50 (SK-MEL-28) [nM]	GI50 (LOX IMVI) [nM]	GI50 (U251) [nM]	GI50 (IGROV1) [nM]	GI50 [1, 2] [nM]	CC50 ([1]; Homo sapiens, 60 cell) [nM]	IC (TGI (total growth inhibition)) ([1]; Homo sapiens, 60 cell) [nM]	GI50 (MCF-7) [nM]	GI50 (UO-31) [nM]	GI50 (T-47D) [nM]	GI50 (BT-549) [nM]	GI50 (SN12C) [nM]	GI50 (SW-620) [nM]	GI50 (OVCAR-3) [nM]	GI50 (HCT-15) [nM]	GI50 (OVCAR-4) [nM]	other results
COc1ccc(C2C(C(C)C)C(=O)N2c2cc(OC)c(OC)c(OC)c2)cc1OP(=O)(O)O (centres unmarked) [15b, 5-(3-Isopropyl-1-(3,4,5-trimethoxyphenyl)-4-oxoazetidin-2-yl)-2-methoxyphenyl dihydrogen phosphate]	73.8	452	319	3470	389	328	276	434	525	93300	44700	244	538	> 100000	411	463	373	270	298	282	GI50 (A498): 104 nM; GI50 (NCI-H552): 237 nM; GI50 (SK-OV-3): 416 nM; GI50 (HS 578T): 173 nM; GI50 (RXF 393): 282 nM; GI50 (786-0): 439 nM; GI50 (A549/ATCC): 353 nM; GI50 (KM12): 180 nM; GI50 (COLO 205): 1230 nM; GI50 (HOP-92): 11200 nM; GI50 (HOP-62): 374 nM; GI50 (CCRF-CEM): 356 nM; GI50 (RPMI-8226): 478 nM
C=C(C)C1C(=O)N(c2cc(OC)c(OC)c(OC)c2)C1c1ccc(OC)c(N)c1 (centres unmarked) [9s, 4-(3-Amino-4-methoxyphenyl)-1-(3,4,5-trimethoxyphenyl)-3-(prop-1-en-2-yl)azetidin-2-one]	26	29.1	30.2	33.7	> 100000	32.5	37.5	35.7	< 91.2	75900	22400	32.4	74	> 100000	37.8	62.9	39.4	22.8	41.6	40.7	IC50 (HT29; text of the NCI screening section, read-out: IC50): 34 nM; GI50 [1, 3]: 55 nM; GI50 (A498): 23.4 nM; GI50 (NCI-H552): 14.6 nM; GI50 (SK-OV-3): 31.7 nM; GI50 (HS 578T): 40.9 nM; GI50 (RXF 393): 39.6 nM; GI50 (786-0): 37.6 nM; GI50 (A549/ATCC): 41.5 nM; GI50 (EKVX): 587 nM; GI50 (KM12): 23.1 nM; GI50 (COLO 205): 19.7 nM; GI50 (HOP-92): 43.7 nM; GI50 (HOP-62): 52.1 nM; GI50 (CCRF-CEM): 37.7 nM; GI50 (RPMI-8226): 35.9 nM
C=CCC1C(=O)N(c2cc(OC)c(OC)c(OC)c2)C1c1ccc(OC)c(O)c1 (centres unmarked) [10p, 4-(3-Hydroxy-4-methoxyphenyl)-1-(3,4,5-trimethoxyphenyl)-3-allylazetidin-2-one]	20.5	29.9	24.9	360	76200	33.9	31.7	44.8	< 91.2	93300	35500	35.3	85.8	63500	18.8	29.8	42.2	23.3	36.7	39.7	GI50 [1, 3]: 61.7 nM; GI50 (A498): 17.5 nM; GI50 (NCI-H552): 15.1 nM; GI50 (SK-OV-3): 36.6 nM; GI50 (HS 578T): 51.7 nM; GI50 (RXF 393): 41 nM; GI50 (786-0): 25.5 nM; GI50 (A549/ATCC): 37.3 nM; GI50 (EKVX): 76.4 nM; GI50 (KM12): 22.4 nM; GI50 (COLO 205): 563 nM; GI50 (HOP-92): 23.8 nM; GI50 (HOP-62): 61 nM; GI50 (CCRF-CEM): 36.1 nM; GI50 (RPMI-8226): 40.6 nM
